{"source": "paper PMC7892475", "about": "“C-Terminal Amination of a Cationic Anti-Inflammatory Peptide Improves Bioavailability and Inhibitory Activity Against LPS-Induced Inflammation” (Frontiers in Immunology, 2021)", "key": {"[1]": {"test": "Reverse-phase HPLC retention time as measure of peptide hydrophobicity", "type": "physicochemical", "conditions": "HPLC on reverse-phase matrix, aqueous solution; used by the paper as measure of hydrophobicity", "excerpt": "The retention time of peptides on a reverse-phase matrix has been reported to be related to peptide hydrophobicity ([34])."}, "[2]": {"tested_on": "NF-κB signaling pathway in LPS-treated RAW264.7 cells", "test": "Western blotting of the NF-κB signaling pathway", "type": "cell-based, mouse", "conditions": "100 ng/ml LPS 1 h, wash, CTP-NH2 3 h, western blot", "description": "RAW264.7 cells plated at a density 1.8 × 10^6 cells/ml were incubated with LPS (100 ng/ml) at 37°C for 1 h. After that, the cells were washed extensively with PBS before being treated with CTP-NH2 for 3 h at 37°C, followed by lysis of the cells. Cytoplasmic and nuclear protein fractions were obtained using NR-PER Nuclear and Cytoplasmic Extraction Reagents (Thermo Fisher Scientific Inc., New Zwaland). The protein concentrations were assessed with a […] (KeyGEN Biotech. Nanjing, China) according to the manufacturer’s instructions. Afterwards, total protein (40 μg protein/lane) was separated on 10% SDS-PAGE gels and then transferred to PVDF membranes (Bio-Rad). Next, the membranes were blocked with 5% non-fat dried-milk containing 0.05% TBST and then immunoblotted with specific primary antibodies against IKK-β, p-IKK-β, IкB-α, p-IкB-α, NF-кB (p65), p-NF-кB (p-p65), and β-actin (Santa Cruz, CA, USA). After being washed with TBST, the membranes were incubated with HRP-conjugated secondary antibodies (HuaAn, Hangzhou, China). A ChemiDoc MP Imaging System (Bio-Rad, Hercules, CA, USA) was used to quantify the density of the specific proteins."}, "RAW264.7 cells [3]": {"tested_on": "RAW264.7 cells", "test": "Cellular uptake and localization of FITC-labeled peptides (confocal microscopy, flow cytometry)", "type": "cell-based, mouse", "conditions": "N-terminus FITC-labeled peptide, 10 μg/ml, 24 h, 37°C, confocal microscopy and flow cytometry (average FITC intensity)", "description": "RAW264.7 cells were treated with N-terminus FITC-labeled peptides at 10 μg/ml for 24 h at 37°C; in the dark. Then, the RAW264.7 cells were rinsed with PBS three times, fixed with paraformaldehyde and washed with PBS. The cell nuclei were stained with DAPI (diluted 1:500 in PBS) (Sigma, USA) for 5 min, and the cells were washed with PBS. The above cells were spread on a glass slide, fixed and observed with a Leica TCA sp5 confocal microscope (Germany).\nRAW264.7 cells were stained with 10 μg/ml N-terminus FITC-labeled peptides at 37°C in the dark for 24 h. Afterwards, the RAW264.7 cells were harvested and rinsed with PBS five times. The average FITC intensity in the cells was measured via flow cytometry."}, "TLR4/MD-2 complex": {"tested_on": "TLR4/MD-2 complex", "test": "Surface plasmon resonance binding", "conditions": "SPR, Biacore X100, PBS with 0.05% Tween 20, 30 μl/min, 1:1 model, 0 to 10 μM", "description": "SPR assays were performed using a Biacore X100 instrument (GE Healthcare, Pittsburgh, PA, USA). PBS containing 0.05% Tween 20 was used as the running buffer. The running buffer was continuously passed into the reaction chamber at 30 μl/min. Immobilization of CTP-NH2 on the chip surface was performed according to an amino coupling protocol. […] Running buffer was injected into the empty channel as a reference. To regenerate the chip surface at the end of each experiment, 10 mM Gly-HCl buffer (pH 2.5) was injected. ProteOn manager software (version 2.0) was used to analyze the experimental data. The binding curves were processed for the start injection alignment and baseline. A reference-subtracted sensorgram was then fitted to the curves describing a homogeneous 1:1 model. Data from the protein surfaces were grouped together to fit the association kinetic rate constant (Ka) and the dissociation rate constant (Kd). The equilibrium dissociation constant (KD) for the peptide-TLR4/MD-2 interaction was calculated as follows: […]"}, "RAW264.7 cells [4]": {"tested_on": "RAW264.7 cells", "test": "CCK-8 cell viability assay", "type": "cell-based, mouse", "conditions": "RAW264.7 macrophages, CCK-8, 0 to 80 μg/ml, 24 h or 72 h, 37°C", "description": "The viability of peptide-treated RAW264.7 cells was determined using a Cell Counting Kit-8 (CCK-8) Assay Kit (Dojindo) ([35]). RAW264.7 cells were plated in 96-well plates at a density of 3×10^4 cells/ml in 100 μl DMEM overnight. The cell culture medium was then supplemented with fresh medium containing candidate peptides in a series of concentrations, and the plates were incubated for another 24 h or 72 h. Each well was incubated with 10 μl CCK-8 solution for 4 h in the dark. Afterwards, the absorbance at 450 nm was measured using a microplate reader. Cell viability was determined by:\nCell viability (%)=(OD450sample/OD450(control))×100%"}, "[5]": {"tested_on": "LPS-stimulated RAW264.7 cells", "test": "Time of addition experiment (peptide pretreatment, LPS neutralization, post-treatment) in RAW264.7 cells", "type": "cell-based, mouse", "conditions": "ELISA", "description": "To identify the mechanisms underlying the anti-inflammatory effects, three different types of treatments were performed as follow.\nBriefly, 10 μg/ml peptide was added to the cell culture medium and incubated with cells for 1 h at 37°C Afterwards, the RAW 264.7 cells were washed with PBS and cultured with fresh medium containing 100 ng/ml LPS for 12 h at 37°C. After treatment, TNF-α, IL-6, and IL-1β secretion in the cell supernatants was assessed.\nThe peptides (10 μg/ml) were incubated with 100 ng/ml LPS directly for 1 h at 37°C. RAW 264.7 cells were stimulated with these mixtures for 12 h at 37°C. Afterwards, the TNF-α, IL-6 and IL-1β levels in the cell supernatants were assessed.\nBriefly, 100 ng/ml LPS was added to the cell culture medium and incubated with cells for 1 h at 37°C. Afterwards, the RAW 264.7 cells were washed with PBS and cultured with fresh medium containing 10 μg/ml peptides for 12 h at 37°C. Afterwards, the TNF-α, IL-6, and IL-1β levels in the cell supernatants were assessed.\nThe levels of tumor necrosis factor (TNF)-α, interleukin (IL)-6, and IL-1β in cell culture supernatants and the levels of TNF-α, IL-6, and IL-1β in the serum of mice were detected using commercial ELISA kits (eBioscience, San Diego, USA) according to the manufacturer’s instructions. The levels of serum alanine amino transferase (ALT) and aspartate amino transferase (AST) were detected using commercial reagent kits (Nanjing Jiancheng Bioengineering Institute, Nanjing, China). The activity of myeloperoxidase (MPO) in the liver of mice was detected using an ELISA kit (Boster, Wuhan, China) according to the manufacturer’s instructions."}}, "data": [{"substance": "RWGRFLRKIRRFRRKDVT-NH2 [CTP-NH2, C-terminal amidated derivative peptide of CTP]", "values": [{"measurement": "Retention time", "setting": "[1]", "value": 11.96, "unit": "min"}, {"measurement": "phosphorylation of IKK-β, IκB-α and NF-κB", "setting": "[2]", "value": "dampened levels of IKK-β"}, {"measurement": "cellular uptake and localization", "setting": "RAW264.7 cells [3]", "value": "significant cellular uptake and a dispersed distribution compared with CTP"}, {"measurement": "Ka (association kinetic rate constant)", "setting": "TLR4/MD-2 complex", "value": "1.65e+07", "unit": "M⁻¹ s⁻¹"}, {"measurement": "cytotoxicity (comparison in words)", "setting": "RAW264.7 cells [4]", "value": "less cytotoxicity than CTP"}, {"measurement": "TNF-α and IL-6 level, peptide used to pretreat cells or added after LPS induction", "setting": "[5]; 10 μg/ml peptide 1 h then wash and 100 ng/ml LPS 12 h, or LPS 1 h, wash, then peptide 12 h", "value": "reduced the concentration of TNF-α"}, {"measurement": "TNF-α and IL-6 release, peptide incubated with LPS", "setting": "[5]; 10 μg/ml peptide incubated with 100 ng/ml LPS 1 h at 37°C, mixture on cells 12 h", "value": "more potency than CTP"}]}]}
